Results reported in patent publication US20050250944A1, “Synthesis and uses of synephrine derivatives” (priority 2004, published 2005).
“Also recorded” adds a separate entry of the source. Where a name gives a salt, the structure may show the parent alone.

How the values were obtained:
adipose tissue = conditions: Pilkington, Cernohorsky, Muhlbachova, Wenkeova et al.; cited from earlier work
human adipocytes = experiment: Test of lipolytic capacity on human adipocytes (glycerol release); assay type: cell-based; conditions: for maximal lipolytic response elicited: glycerol released by human abdominal subcutaneous adipocytes, 90 min at 37° C., basal 0%, isoproterenol 100%
From the text: The lipolytic capacity of the Synephrine Derivatives can be tested in human adipocytes. For the sake of convenience, for Examples 21 to 24, the known 2-isopropylamino-1-(4-hydroxyphenyl)-ethanol hydrochloride (Formula shown in Example 12, above, also known as isopropylnorsynephrine hydrochloride) is used here as a non-limiting example of a Synephrine Derivative.
In this example, the lipolytic property of isopropylnorsynephrine hydrochloride was compared to that of synephrine hydrochloride (Formula shown in Example 15). The index of lipolytic activity chosen was the glycerol released by freshly originated human adipocytes with reference to basal (0%, without any drug) and maximal (100%) responses to a standard lipolytic reference: isoproterenol.
Adipocytes were isolated from samples of subcutaneous abdominal adipose depot freshly obtained during abdominal lipectomy. The surgical interventions were conducted under general anaesthesia on ten healthy women undergoing abdominal plastic surgery. The human samples were transferred in less than 15 min to the laboratory for adipocyte preparation. The human abdominal subcutaneous adipocytes were obtained by collagenase digestion of the fresh samples of adipose tissue. The isolation, washing, handling and distribution of fat cells were carried out according to the technique described in Carpene, “Assays of Adrenergic Receptors: Including Lipolysis and Binding Measurements”, from Methods in Molecular Biology, supra. Briefly, extemporaneous dilutions of the tested drugs were added in 4 μl in plastic vials which received 400 μl of freshly prepared adipocyte suspension. The given concentrations were the final concentrations in which the cells were incubated for 90 min at 37° C. under gentle shaking. At the end of the experiment, the glycerol released by the cells was determined on an aliquot as described in Carpene, Id.
The mean lipid content in the incubation vials was 17.6±1.0 mg/400 μl, which corresponded to approximately 500,000 cells/vial.

β-adrenergic = conditions: literature; cited from earlier work
[1] = literature; cited from earlier work
β3-adrenoceptors = biological target: T1, β3-adrenoceptors (Rattus norvegicus, UniProt P26255); conditions: Carpene et al. 1999; cited from earlier work
T1 construct: comparative studies in mammalian fat cells; host or cells: mammalian fat cells (adipocytes), endogenous receptor

rat adipocyte = conditions: Carpene et al.; cited from earlier work
human fat cells = conditions: Carpene et al.; cited from earlier work
[2] = long use in China; Zhao et al. 1989; cited from earlier work
[3] = ratio to synephrine hydrochloride

T1 sequence (P26255 whole entry): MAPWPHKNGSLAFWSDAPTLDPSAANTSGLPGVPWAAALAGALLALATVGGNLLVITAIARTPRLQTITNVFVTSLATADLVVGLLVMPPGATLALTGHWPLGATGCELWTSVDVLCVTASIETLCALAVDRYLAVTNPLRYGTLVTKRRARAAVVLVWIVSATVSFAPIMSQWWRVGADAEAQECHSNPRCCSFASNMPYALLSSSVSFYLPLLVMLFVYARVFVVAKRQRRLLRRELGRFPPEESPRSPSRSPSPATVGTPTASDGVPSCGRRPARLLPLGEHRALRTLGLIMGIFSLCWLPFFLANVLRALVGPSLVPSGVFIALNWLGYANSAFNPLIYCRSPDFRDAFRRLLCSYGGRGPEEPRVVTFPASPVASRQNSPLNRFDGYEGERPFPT

SMILES: CCCCNCC(O)c1ccc(O)cc1 (stereo not drawn) [Bamethan, 2-butylamino-1-(4-hydroxyphenyl)-ethanol]
- lipid mobilization properties in vitro (adipose tissue): have lipid mobilization properties in vitro

SMILES: CCNCC(O)c1ccc(O)cc1 (stereo not drawn) [ethylnorsynephrine, 2-ethylamino-1-(4-hydroxyphenyl)-ethanol]
- lipid mobilization properties in vitro (adipose tissue): have lipid mobilization properties in vitro

SMILES: CC(C)NCC(O)c1ccc(O)cc1 (stereo not drawn) [isopropylnorsynephrine hydrochloride, 2-Isopropylamino-1-(4-hydroxyphenyl)-ethanol hydrochloride]
- lipolytic effect at low concentration versus synephrine hydrochloride (human adipocytes; 1μg/mL versus synephrine hydrochloride at 100 μg/mL): still far greater than that of synephrine hydrochloride
- maximal lipolytic response elicited (human adipocytes; FIG. 1): ~60%
- lipolytic property on human fat cells (in words) (human adipocytes; human adipocytes, FIG. 1, hydrochloride): strong lipolytic property; also recorded: superior than synephrine hydrochloride
- capacity to stimulate human adipocytes lipolysis compared to synephrine hydrochloride (human adipocytes; [3]): 2 times
- lipolytic potency relative to synephrine hydrochloride (human adipocytes; [3]): ~100 times

SMILES: CC(C)NCC(O)c1ccc(O)cc1 (stereo not drawn) [isopropylnorsynephrine, 2-isopropylamino-1-(4-hydroxyphenyl)-ethanol]
- adrenergic activity (in words) (β-adrenergic): pure β-adrenergic activity
- lipid mobilization properties in vitro (adipose tissue): have lipid mobilization properties in vitro
- plasma free fatty acid level in vivo [1]: can increase plasma free fatty acid level in vivo

SMILES: NCC(O)c1ccc(O)cc1 (stereo not drawn) [octopamine, 2-amino-1-(4-hydroxyphenyl)-ethanol]
- selective action on β3-adrenoceptors (β3-adrenoceptors): can selectively act on β3-adrenoceptors; also recorded: selective activation of β3-adrenoceptor
- rat adipocyte lipolysis (rat adipocyte): effective
- effect on human fat cells (lipolysis) (human fat cells): ineffective

SMILES: CC(C)(Cc1ccccc1)NCC(O)c1ccc(O)cc1 (stereo not drawn) [phenyl-t-butylnorsynephrine, 2-(phenyl-t-butylamino)-1-(4-hydroxyphenyl)-ethanol]
- lipid mobilization properties in vitro (adipose tissue): have lipid mobilization properties in vitro

SMILES: CCCNCC(O)c1ccc(O)cc1 (stereo not drawn) [propylnorsynephrine, 2-propylamino-1-(4-hydroxyphenyl)-ethanol]
- lipid mobilization properties in vitro (adipose tissue): have lipid mobilization properties in vitro

SMILES: CNCC(O)c1ccc(O)cc1 (stereo not drawn) [synephrine hydrochloride, 2-Methylamino-1-(4-hydroxyphenyl)-ethanol hydrochloride, reference compound]
- maximal lipolytic response elicited (human adipocytes; FIG. 1): ~30%

SMILES: CNCC(O)c1ccc(O)cc1 (stereo not drawn) [synephrine, 2-methylamino-1-(4-hydroxyphenyl)-ethanol]
- adrenergic activity (in words) (β-adrenergic): both α- and β-adrenergic activity
- lipid mobilization properties in vitro (adipose tissue): have lipid mobilization properties in vitro
- plasma free fatty acid level in vivo [1]: can increase plasma free fatty acid level in vivo
- effect on blood pressure [2]: increase blood pressure

SMILES: CC(C)(C)NCC(O)c1ccc(O)cc1 (stereo not drawn) [tert-butylnorsynephrine, 2-tert-butylamino-1-(4-hydroxyphenyl)-ethanol]
- lipid mobilization properties in vitro (adipose tissue): have lipid mobilization properties in vitro
